Experimental data published in PMC6632053, “Incorporation of Putative Helix-Breaking Amino Acids in the Design of Novel Stapled Peptides: Exploring Biophysical and Cellular Permeability Properties” (Molecules, 2019).
Like-named read-outs stand apart in the source and are kept apart here. Bridge positions count the residues as written; N and C are the ends. Square brackets hold non-standard residues; d marks the D form. Peptide text beside a SMILES is read from it. Lys(N3) = [N-]=[N+]=NCCCC[C@H](N)C(=O)O; R8 = C=CCCCCCC[C@@](C)(N)C(=O)O; Cba = N[C@@H](CC1CCC1)C(=O)O; S5 = C=CCCC[C@](C)(N)C(=O)O; βAla = NCCC(=O)O

What was measured:
human Mdm2 1–125 = target: T1, human Mdm2 1–125 (Homo sapiens, UniProt Q00987); test: Mdm2 binding assay (competitive fluorescence anisotropy/polarization); settings: competitive fluorescence polarization, read-out: Mdm2 (nM), Mdm2 binding (Kd)
T1 construct: GST (N); His6 (internal); TEV cleavage site ENLYFQG (internal); made in house; host or cells: Escherichia coli BL21 (DE3) Rosetta T1R
T1 sequence (Q00987 with tags, fused parts or gaps): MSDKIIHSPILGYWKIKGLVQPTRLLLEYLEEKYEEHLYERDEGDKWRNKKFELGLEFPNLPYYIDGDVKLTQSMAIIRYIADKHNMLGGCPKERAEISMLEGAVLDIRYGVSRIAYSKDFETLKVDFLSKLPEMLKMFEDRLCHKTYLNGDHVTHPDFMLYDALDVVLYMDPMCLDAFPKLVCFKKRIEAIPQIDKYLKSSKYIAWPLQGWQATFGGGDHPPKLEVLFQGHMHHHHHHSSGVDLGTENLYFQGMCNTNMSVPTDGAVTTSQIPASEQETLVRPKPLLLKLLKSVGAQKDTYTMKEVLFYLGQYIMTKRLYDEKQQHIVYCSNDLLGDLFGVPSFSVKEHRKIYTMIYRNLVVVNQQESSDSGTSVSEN
Protocol: The TEV (tobacco etch virus) cleavage site was changed from ENLYFQS to ENLYFQG to give a fusion protein with the following sequence:
Titrations were carried out with the concentration of Mdm2 held constant at 250 nM and the labeled peptide at 50 nM. The competing molecules were then titrated against the complex of the FAM-labeled peptide and protein. Apparent Kd values were determined by fitting the experimental data to the equations shown below:(2) r=r0+(rb−r0)×2(d^2−3e)cos(θ/3)−9/3Kd1+2(d^2−3e)cos(θ/3)−dd=Kd1+Kd2+[L]st+[L]t−[P]te=([L]t−[P]t)Kd1+([L]st−[P]t)Kd2+Kd1Kd2f=−Kd1Kd2[P]tθ=arcos[−2d^3+9de−27f/2(d^2−3e)^3] where [L]st and [L]t denote labeled ligand and total unlabeled ligand input concentrations, respectively. Kd2 is the dissociation constant of the interaction between the unlabeled ligand and the protein. In all competition experiments, it was assumed that [P]t > [L]st, otherwise considerable amounts of free labeled ligand would always be present and would interfere with measurements. Kd1 is the apparent Kd for the labeled peptide used and was experimentally determined as described in the previous paragraph. The FAM-labeled peptide was dissolved in dimethyl sulfoxide (DMSO) at 1 mM and diluted into the experimental buffer. Readings were carried out with an Envision Multilabel Reader (PerkinElmer). Experiments were carried out in PBS (2.7 mM KCl, 137mM NaCl, 10 mM Na2HPO4, and 2 mM KH2PO4 (pH 7.4)) and 0.1% Tween 20 buffer. All titrations were carried out in triplicate. Curve-fitting was carried out using Prism 4.0 (GraphPad). […] Negative control titrations of the ligands under investigation were also carried out with the fluorescently labeled peptide (in the absence of Mdm2) to ensure no interactions were occurring between the ligands and the FAM-labeled peptide.

[1] = Circular dichroism (CD) α-helicity; format: physicochemical; settings: for Helicity (%): CD of free peptide, 25 °C, 1 mM Hepes pH 7.4, 5% methanol
Protocol: A total of 5 µL of the 10 mM stock peptide was mixed with 45 µL of 100% methanol, and dried for 2 h in the SpeedVac concentrator (Thermo Scientific). The dried peptide was reconstituted in a buffer (1 mM Hepes pH 7.4 and 5% methanol) to a concentration of 1 mM. The peptide sample was placed in a quartz cuvette with a path length of 0.2 cm. The peptide concentration was determined by the absorbance of the peptide at […]. The CD spectrum was recorded from 300 to 190 nm using the Chirascan-plus qCD machine (Applied Photophysics, Surrey, UK), at 25 °C. All experiments were done in duplicates. The CD spectrum was converted to mean residue ellipticity, before deconvolution and estimation of the secondary structure components of the peptide using the CDNN software (distributed by Applied Photophysics).

[2] = test system: p53 responsive β-lactamase reporter in HCT116 cells; test: p53 beta-lactamase reporter gene cellular functional assay; format: cell-based; settings: p53 reporter assay, HCT116, read-out: Cellular (µM), cellular activity (EC50)
Protocol: HCT116 cells were stably transfected with a p53 responsive β-lactamase reporter and were seeded into a 384-well plate at a density of 8000 cells per well. Cells were maintained in McCoy’s 5A Medium with 10% fetal bovine serum (FBS), Blasticidin, and Penicillin/Streptomycin. The cells were incubated overnight, followed by removal of cell growth media and replacement with Opti-MEM either containing 0% FBS or 10% FBS. […] The final working concentration of DMSO was 0.5%. β-lactamase activity was detected using the ToxBLAzer Dual Screen (Invitrogen), as per the manufacturer’s instructions. Measurements were made using the Envision multiplate reader (Perkin–Elmer).

Structure (SMILES) | Kd (human Mdm2 1–125; Table 1) [nM] | Helicity (%) ([1]; Table 1) | EC50 ([2]; Table 1) [µM] | Kd (human Mdm2 1–125; Table 2) [nM] | Helicity (%) ([1]; Table 2) | EC50 ([2]; Table 2) [µM] | α-helicity by CD [1] [%]
CC(=O)N[C@@H](CC(C)C)C(=O)N[C@H](C(=O)N[C@@H](Cc1ccccc1)C(=O)N[C@]1(C)CCCCCCC=CCCC[C@@](C)(C(=O)N[C@@H](CO)C(=O)N[C@H](C)C(=O)N[C@@H](C)C(N)=O)NC(=O)[C@H](CC2CCC2)NC(=O)[C@H](CC(C)C)NC(=O)[C@H](CCC(N)=O)NC(=O)[C@H](Cc2c[nH]c3ccccc23)NC(=O)[C@H](Cc2ccc(O)cc2)NC(=O)[C@H](CCC(=O)O)NC1=O)[C@@H](C)O [A13(D-Ala)] | 17 | 41.8 | 0.6 | – | – | – | –
CC(=O)N[C@@H](CCCCN=[N+]=[N-])C(=O)NCCC(=O)N[C@@H](CC(C)C)C(=O)N[C@H](C(=O)N[C@@H](Cc1ccccc1)C(=O)N[C@]1(C)CCCCCCC=CCCC[C@@](C)(C(=O)N[C@@H](CO)C(=O)N(C)[C@@H](C)C(=O)N[C@@H](C)C(N)=O)NC(=O)[C@H](CC2CCC2)NC(=O)[C@H](CCC(N)=O)NC(=O)[C@H](C)NC(=O)[C@H](Cc2c[nH]c3ccccc23)NC(=O)[C@H](Cc2ccc(O)cc2)NC(=O)[C@H](CCC(=O)O)NC1=O)[C@@H](C)O [A13(N-methyl L-Ala)] | – | – | – | 10 | 38.6 | 1.6 | –
CC(=O)N[C@@H](CC(C)C)C(=O)N[C@H](C(=O)N[C@@H](Cc1ccccc1)C(=O)N[C@]1(C)CCCCCCC=CCCC[C@@](C)(C(=O)N[C@@H](CO)C(=O)N[C@@H](C)C(=O)N[C@H](C)C(N)=O)NC(=O)[C@H](CC2CCC2)NC(=O)[C@H](CC(C)C)NC(=O)[C@H](CCC(N)=O)NC(=O)[C@H](Cc2c[nH]c3ccccc23)NC(=O)[C@H](Cc2ccc(O)cc2)NC(=O)[C@H](CCC(=O)O)NC1=O)[C@@H](C)O [A14(D-Ala)] | 18 | 34.6 | 0.5 | – | – | – | –
CC(=O)N[C@@H](CC(C)C)C(=O)N[C@H](C(=O)N[C@@H](Cc1ccccc1)C(=O)N[C@]1(C)CCCCCCC=CCCC[C@@](C)(C(=O)N[C@@H](CO)C(=O)N[C@@H](C)C(=O)N[C@@H](C)C(N)=O)NC(=O)[C@H](CC2CCC2)NC(=O)[C@H](CC(C)C)NC(=O)[C@H](CCC(N)=O)NC(=O)[C@H](Cc2c[nH]c3ccccc23)NC(=O)[C@H](Cc2ccc(O)cc2)NC(=O)[C@@H](CCC(=O)O)NC1=O)[C@@H](C)O [E5(D-Glu)] | 32 | 38.2 | 1 | – | – | – | –
CC(=O)N[C@@H](CCCCN=[N+]=[N-])C(=O)NCCC(=O)NCC(=O)N[C@H](C(=O)N[C@@H](Cc1ccccc1)C(=O)N[C@]1(C)CCCCCCC=CCCC[C@@](C)(C(=O)N[C@@H](CO)C(=O)N[C@@H](C)C(=O)N[C@@H](C)C(N)=O)NC(=O)[C@H](CC2CCC2)NC(=O)[C@H](CCC(N)=O)NC(=O)CNC(=O)[C@H](Cc2c[nH]c3ccccc23)NC(=O)[C@H](Cc2ccc(O)cc2)NC(=O)CNC1=O)[C@@H](C)O [L1G, E5G, A8G] (Ac-[Lys(N3)][βAla]GTF[R8]GYWGQ[Cba][S5]SAA-NH2; staple 6-13) | – | – | – | 49.8 | 20.4 | 1.7 | 20.4
CC(=O)N[C@@H](CC(C)C)C(=O)N[C@H](C(=O)N[C@@H](Cc1ccccc1)C(=O)NC(C)(C)C(=O)N[C@@H](CCC(=O)O)C(=O)N[C@@H](Cc1ccc(O)cc1)C(=O)N[C@@H](Cc1c[nH]c2ccccc12)C(=O)N[C@@H](CCC(N)=O)C(=O)N[C@H](CC(C)C)C(=O)N[C@@H](CC1CCC1)C(=O)NC(C)(C)C(=O)N[C@@H](CO)C(=O)N[C@@H](C)C(=O)N[C@@H](C)C(N)=O)[C@@H](C)O [Linear L9(D-Leu)] | 88 | 19.7 | > 50 | – | – | – | –
CC(=O)N[C@@H](CCCCN=[N+]=[N-])C(=O)NCCC(=O)N[C@@H](CC(C)C)C(=O)N[C@H](C(=O)N[C@@H](Cc1ccccc1)C(=O)N[C@]1(C)CCCCCCC=CCCC[C@@](C)(C(=O)N[C@@H](CO)C(=O)N[C@@H](C)C(=O)N[C@@H](C)C(N)=O)NC(=O)[C@H](CC2CCC2)NC(=O)[C@H](CCC(N)=O)NC(=O)[C@H](C)NC(=O)[C@H](Cc2c[nH]c3ccccc23)NC(=O)[C@H](Cc2ccc(O)cc2)NC(=O)CNC1=O)[C@@H](C)O [Peptide E5G] | – | – | – | 61.8 | 28.6 | 0.26 | 28.6

Continued, values first:

Kd (human Mdm2 1–125; Table 1) [nM] | Helicity (%) ([1]; Table 1) | EC50 ([2]; Table 1) [µM] | Kd (human Mdm2 1–125; Table 2) [nM] | Helicity (%) ([1]; Table 2) | EC50 ([2]; Table 2) [µM] | α-helicity by CD [1] [%] | Structure (SMILES)
6480 | 51.8 | > 50 | – | – | – | – | CC(=O)N[C@@H](CC(C)C)C(=O)N[C@H](C(=O)N[C@H](Cc1ccccc1)C(=O)N[C@]1(C)CCCCCCC=CCCC[C@@](C)(C(=O)N[C@@H](CO)C(=O)N[C@@H](C)C(=O)N[C@@H](C)C(N)=O)NC(=O)[C@H](CC2CCC2)NC(=O)[C@H](CC(C)C)NC(=O)[C@H](CCC(N)=O)NC(=O)[C@H](Cc2c[nH]c3ccccc23)NC(=O)[C@H](Cc2ccc(O)cc2)NC(=O)[C@H](CCC(=O)O)NC1=O)[C@@H](C)O [F3(D-Phe)]
31 | 44.1 | 0.6 | – | – | – | – | CC(=O)N[C@H](CC(C)C)C(=O)N[C@H](C(=O)N[C@@H](Cc1ccccc1)C(=O)N[C@]1(C)CCCCCCC=CCCC[C@@](C)(C(=O)N[C@@H](CO)C(=O)N[C@@H](C)C(=O)N[C@@H](C)C(N)=O)NC(=O)[C@H](CC2CCC2)NC(=O)[C@H](CC(C)C)NC(=O)[C@H](CCC(N)=O)NC(=O)[C@H](Cc2c[nH]c3ccccc23)NC(=O)[C@H](Cc2ccc(O)cc2)NC(=O)[C@H](CCC(=O)O)NC1=O)[C@@H](C)O [L1(D-Leu)]
30 | 39.0 | 1.1 | – | – | – | – | CC(=O)N[C@@H](CC(C)C)C(=O)N[C@H](C(=O)N[C@@H](Cc1ccccc1)C(=O)N[C@]1(C)CCCCCCC=CCCC[C@@](C)(C(=O)N[C@@H](CO)C(=O)N[C@@H](C)C(=O)N[C@@H](C)C(N)=O)NC(=O)[C@H](CC2CCC2)NC(=O)[C@@H](CC(C)C)NC(=O)[C@H](CCC(N)=O)NC(=O)[C@H](Cc2c[nH]c3ccccc23)NC(=O)[C@H](Cc2ccc(O)cc2)NC(=O)[C@H](CCC(=O)O)NC1=O)[C@@H](C)O [L9(D-Leu)]
277 | 37.2 | > 50 | – | – | – | – | CC(=O)N[C@H](CC(C)C)C(=O)N[C@H](C(=O)N[C@@H](Cc1ccccc1)C(=O)NC(C)(C)C(=O)N[C@@H](CCC(=O)O)C(=O)N[C@@H](Cc1ccc(O)cc1)C(=O)N[C@@H](Cc1c[nH]c2ccccc12)C(=O)N[C@@H](CCC(N)=O)C(=O)N[C@@H](CC(C)C)C(=O)N[C@@H](CC1CCC1)C(=O)NC(C)(C)C(=O)N[C@@H](CO)C(=O)N[C@@H](C)C(=O)N[C@@H](C)C(N)=O)[C@@H](C)O [Linear L1(D-Leu)]
119 | 21.8 | > 50 | – | – | – | – | CC(=O)N[C@@H](CC(C)C)C(=O)N[C@H](C(=O)N[C@@H](Cc1ccccc1)C(=O)NC(C)(C)C(=O)N[C@@H](CCC(=O)O)C(=O)N[C@@H](Cc1ccc(O)cc1)C(=O)N[C@@H](Cc1c[nH]c2ccccc12)C(=O)N[C@H](CCC(N)=O)C(=O)N[C@@H](CC(C)C)C(=O)N[C@@H](CC1CCC1)C(=O)NC(C)(C)C(=O)N[C@@H](CO)C(=O)N[C@@H](C)C(=O)N[C@@H](C)C(N)=O)[C@@H](C)O [Linear Q8(D-Gln)]
29.8 | 27.6 | 0.18 | – | – | – | – | CC(=O)N[C@@H](CC(C)C)C(=O)N[C@H](C(=O)N[C@@H](Cc1ccccc1)C(=O)N[C@]1(C)CCCCCCC=CCCC[C@@](C)(C(=O)N[C@@H](CO)C(=O)N[C@@H](C)C(=O)N[C@@H](C)C(N)=O)NC(=O)[C@H](CC2CCC2)NC(=O)[C@H](CC(C)C)NC(=O)[C@H](CCC(N)=O)NC(=O)[C@H](Cc2c[nH]c3ccccc23)NC(=O)[C@H](Cc2ccc(O)cc2)NC(=O)[C@H](C)NC1=O)[C@@H](C)O [Peptide E5A] (Ac-LTF[R8]AYWQL[Cba][S5]SAA-NH2; staple 4-11)
